Here are results for one compound from patent publication US20200338028A1, “BENZENESULFONAMIDE DERIVATIVES AND METHOD FOR MODULATING LIPID RAFT” (Gongwin Biopharm Co., Ltd., priority 2017, published 2020).

The assay concerns PC-3 cells. Description: SRB assay, anti-proliferative effect. In kind it is cell-based. The note with it: Homo sapiens. The protocol:
Two castration-resistant prostate cancer (CRPC) cell lines of PC-3 and DU-145 were cultured in RPMI 1640 medium with 5% FBS (v/v), penicillin (100 units/ml) and streptomycin (100 μg/ml). Cultures were maintained in a 37° C. incubator with 5% CO2, and adherent cultures were passaged using 0.05% trypsin-EDTA when they reached about 80% confluence. Prostate cells were from human tissue samples which were obtained following informed consent of the donors and after full review by the Ethics Review Committee at National Taiwan University Hospital. The prostate specimens were from males by transurethral resection of the prostate. All patients with prostatism histories were diagnosed to have benign prostate hyperplasia by rectal digital examination, transrectal sonography of prostate and urodynamic studies. Isolation of human prostatic cells from prostatic tissue explants was described in the previous study. The prostate cells were with less amount lipid rafts compared to prostate cancer cells.
SRB assay, colonogenic assay, and carboxyfluorescein succinimidyl ester (CFSE) staining were used for anti-proliferative determination. SRB assay is an accurate and reproducible assay based upon quantitative SRB staining of cellular proteins, and the process for SRB assay was performed as follows. Each individual PC-3 and DU-145 cells were seeded in 96-well plates in medium with 10% FBS. After 24 h, PC-3 and DU-145 cells were fixed with 10% TCA to represent cell population at the time of p-TSA addition. […] The absorbance of SRB was measured at a wavelength of 515 nm at the time of p-TSA addition (hereinafter referred to as time zero, TZ), and after additional incubation of DMSO (hereinafter referred to as control growth, CTL) or p-TSA (hereinafter referred to as Tx). The percentage of cell growth inhibition was calculated by the formula of [1−(Tx−TZ)/(CTL−TZ)]×100%. […]
To further substantiate the role of Akt, the Myr-Akt overexpressed PC-3 cells were prepared with the method shown as follows. […] Furthermore, the functional rescue of Myr-Akt was determined. […]

Where two headings read alike, the source gives them in different places.

`Cc1ccc(S(N)(=O)=O)cc1` [p-TSA, para-toluenesulfonamide]: the IC50 (as a rule, the concentration that gives 50% inhibition) was 2.18 ± 0.1 mM (PC-3, 48 h, PC-3 overexpressing constitutively active Myr-Akt, 48 hours, FIG. 4E, read-out: IC50, growth inhibition, SRB assay); 1.97 ± 0.01 mM (PC-3, 48 h, PC-3 without Myr-Akt overexpression, 48 hours, FIG. 4E, read-out: IC50, growth inhibition, SRB assay); approximately 3 mM (PC-3, PC-3, SRB assay, FIG. 1A, read-out: IC50, inhibition of cell growth).
